In patent US20050208058A1, “Compositions and methods for modulating cell division” (priority 2003, published 2005):
d = 2'-deoxy (DNA)

What was measured:
Assay type in all cases: cell-based, human
[1] = system: GCP2; assay: Immunofluorescence of GCP2 at the centrosome after siRNA treatment; conditions: vs siLamin; FIG. 1B
Procedure: To test the ability of siRNAs to silence centrosomal gene products, cells were treated with siRNAs for 24 hours. Cells were diploid, telomerase-immortalized human retinal pigment epithelial (RPE1) cells (hTERT-RPE1s from Clontech, Palo Alto, Calif.) (see Morales et al., Nat Genet, 21:115-118, 1999). siRNAs directed to δ-tubulin (SEQ ID NO:2), γ-tubulin (SEQ ID NO:4), GCP2 (SEQ ID NO:5), GCP3(SEQ ID NO:6), cNAP1 (SEQ ID NO:8), PCM1 (SEQ ID NO:9), ninein (SEQ ID NO:21), NEK2a (SEQ ID NO:10), centrin2 (SEQ ID NO:12), CDC14A (SEQ ID NO:13), gapcena (SEQ ID NO:15), nemo (SEQ ID NO:16), pericentrin (SEQ ID NO:23), lamin A/C (CUGGACUUCCAGAAGAACA, SEQ ID NO: 24) zyxin (UGUGGCUGUCAACGAACUC, SEQ ID NO:25), and p53 (GGACAAGGGUUGGGCUGGG, SEQ ID NO:26) were made as complementary single stranded 19-mer siRNAs with 3′ dTdT overhangs (Dharmacon Inc., Lafayette, Colo.), deprotected, annealed and delivered into cells using OLIGOFECTAMINE® from Invitrogen (Carlsbad, Calif.). Nucleotides were delivered in media containing up to 100 nanomolar concentrations of siRNAs. […]
FIG. 1B compares cells treated with siRNA to Lamin (siLamin, left panel) and GCP2 (siGCP2, right panel). Oval shaped fluorescence staining indicates nuclear DNA (large arrow). […]

[2] = system: RPE cells; assay: Ki-67 staining of siRNA-treated cells; conditions: vs silamin; FIG. 2B
Procedure: (§1) To further study the effects of silencing centrosomal genes, the following cell cycle experiments were performed using RPE cells. In immunofluorescence experiments, cells were delivered by OLIGOFECTAMINE in a media solution containing between 1-100 nanomolar concentration of siRNAs. After 4 hours of incubation with lipofectamine, cells were washed, and cell cycle progression was assayed by (i) treating cells with 5-Bromo-2′-deoxyuridine (BrDU from Sigma, St Louis, Mo.) for 24 hours and staining for BrDU or (ii) staining cells with antibody to Ki-67 (BD Biosciences) according to manufacturer's instructions. BrDU treatment and staining were performed as follows: after 50-70 hours incubation with siRNA, BrDU was added to cells at a final concentration of 5 μg/ml. Cells were fixed in −20° C. methanol and then treated with 2N HCL at 22° C. for 30 minutes, incubated with 1:500 mouse anti-BrdU antibody (Becton Dickinson, Palo Alto, Calif.), and labeled with 1:1,000 goat FITC-mouse antibody (Molecular Probes, Inc.). Cells were also treated with 4′,6-diamidino-2-phenylindole (DAPI) (Molecular Probes) according to the manufacturer's instructions. Cells were prepared, imaged, and the resulting images were deconvolved as described in Example 1.
FIG. 2B confirms the results in FIG. 2A using a different immunofluorescence marker for cell cycle progression. […]

[3] = system: RPE cells; assay: BrDU staining of cells treated in tandem with two siRNAs (p53 dependence); conditions: tandem treatment silaminin then indicated siRNA, vs silamin/silamin; FIG. 6B
Procedure: as §1
(§2) A number of experiments were conducted to determine if p53 is required for the cell cycle arrest phenotype described herein. FACS analysis of tandem siRNA-treated cells was performed as described in Example 2. BrDU and DAPI imaging was performed as described in Example 2. Intracellular p53 was visualized using anti-p53 antibody that is specific for activated p53 (i.e., p53 phosphorylated at Serine 33) (“α-Pser33-p53” provided by Yoichi Taya and described in Kishis et al., J. Biol. Chem., 276:39115-3922, 2001)

[4] = system: p53; assay: Immunofluorescence of p53 and phosphorylated p53 (α-Pser33-p53) localization; conditions: vs silamin
Procedure: as §2
Translocation of p53 into the nucleus caused by depletion of centrosomal proteins was also observed by immunofluorescence. […] Relatively little p53 translocated from the cytoplasm to the nucleus of silamin.
An antibody specifically reactive for phosphorylated p53 (α-Pser33-p53) was used to determine the phosphorylated state of p53 that accumulates in the nucleus as a result of GCP2 gene product depletion. In FIG. 6F, the left panels depict cells treated with silamin; the right panels depict cells treated with siGCP2. […] The two upper panels show a merged view of (i) the bottom panels and (ii) the same cells stained with DAPI. […] This nuclear localization is confirmed by the overlapping DAPI staining.

Sequence: UCUCGUACUCCAGAAGACU (siRNA; RNA, 3' dTdT, backbone not given here) [siGCP2, siRNA directed to GCP2]
- GCP2 level in the centrosome (immunofluorescence) [1]: reduced levels of GCP2 in the centrosome
- cells expressing Ki67 [2]: Very few cells
- cells incorporating BrDU [3]: substantially fewer
- p53 accumulation in nucleus (immunofluorescence) ([4]; FIG. 6E): substantially more p53 accumulated in nucleus
- localization of activated p53 (α-Pser33-p53 staining) ([4]; FIG. 6F): activated p53 was detected only in the nucleus
